# Measurements published in US7799795B2, “Aryl nitrile compounds and compositions and their uses in treating inflammatory and related disorders” (Amgen Inc., priority 2005, dated 2010).
# Where two headings read alike, the source gives them in different places.
# How the values were obtained:
# CXCR3 [1] = target: T1, CXCR3 (Homo sapiens, UniProt P49682); assay: CXCR3 binding assay in binding buffer (125I-labelled chemokine, CXCR3-expressing cells); conditions: absence of human plasma
# T1 construct: ChemoCentryx
# T1 sequence (P49682 1-368): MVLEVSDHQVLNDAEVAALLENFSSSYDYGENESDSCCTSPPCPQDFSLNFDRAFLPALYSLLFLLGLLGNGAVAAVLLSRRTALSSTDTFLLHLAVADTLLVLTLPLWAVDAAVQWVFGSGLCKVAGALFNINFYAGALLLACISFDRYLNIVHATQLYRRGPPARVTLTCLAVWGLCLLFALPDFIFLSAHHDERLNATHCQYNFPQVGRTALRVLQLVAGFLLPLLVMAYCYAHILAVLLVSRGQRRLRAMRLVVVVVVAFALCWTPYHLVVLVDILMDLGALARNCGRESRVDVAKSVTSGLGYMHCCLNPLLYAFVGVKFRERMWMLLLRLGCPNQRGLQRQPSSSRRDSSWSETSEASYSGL
# Experimental: (§1) CXCR3 Binding Assay: CXCR3 binding assays were conducted as previously described (see, e.g., Example 12 in WO 02/083143, incorporated herein by reference in its entirety), in the absence (“binding buffer”) or presence of human plasma. Unless otherwise noted, all reagents used are available from commercial sources (e.g., Sigma-Aldrich, St. Louis, Mo., USA). Test compounds are diluted in DMSO to a concentration that is 40-times the intended final assay concentration; 5 μL are transferred to each well of a 96-well flat-bottomed polypropylene plate (e.g., from Greiner, Inc.). CXCR3-expressing cells obtained from ChemoCentryx were used in the assays to generate the data set forth below. The cells were resuspended in assay buffer (25 mM Hepes, 80 mM NaCl, 1 mM CaCl2, 5 mM MgCl2, 0.2% bovine serum albumin, pH 7.1, stored at 4° C.) at 5 million cells per mL; 100 μL of this cell suspension is then transferred to each well of a 96-well plate containing the diluted test compounds. ^125I-labelled chemokine (purchased from commercial sources, e.g., Amersham, PE Life Sciences) is diluted in assay buffer to a concentration of approximately […]; 100 μL of this chemokine solution is transferred to each well of a 96-well plate containing compounds and cell suspension. The plates are sealed with commercially available foil plate seals (e.g., from E&K Scientific), and stored at 4° C. for a period of 2 to 4 h, shaking gently. At the end of this incubation period, the contents of the assay plates are transferred to GF/B filter plates (Packard) that have been pre-coated by dipping into a solution containing 0.3% polyethyleneimine (Sigma-Aldrich), using a cell harvester (Packard), and washing twice with wash buffer (25 mM Hepes, 500 mM NaCl, 1 mM CaCl2, 5 mM MgCl2, pH 7.1, stored at room temperature). The filter plates are sealed on the bottom with plate seals (Packard), 50 μL of Microscint-20 scintillation fluid (Packard) is added to each well, and the top of the plates are sealed with clear plastic (TopSeal A, Packard). The plates are counted on a scintillation counter, such as a Packard TopCount. To measure non-specific binding, 4 wells containing unlabelled “cold” chemokine were included on each 96-well plate. To measure maximum binding, 4 wells containing 5 μL of DMSO, 100 μL of cell suspension and 100 μL of ^125I-labelled chemokine solution were included on each 96-well plate. Data were analyzed using commercially available software (e.g., Excel from Microsoft, Prism from GraphPad Software Inc.).
# CXCR3 [2] = target: T1, CXCR3; assay: CXCR3 binding assay in presence of human plasma
# Experimental: as §1
# [3] = system: Human peripheral blood mononuclear cells (PBMCs); assay: I-TAC migration assay; assay type: cell-based; conditions: PBMC; activated human PBMCs, human ITAC, in human plasma
# Experimental: I-TAC migration assay: Human peripheral blood mononuclear cells (PBMCs) were activated with OKT3 (purified by AB solutions from hybridoma cell line OKT3 (ATCC CRL-8001)) and IL-2 (Peprotech, Inc., Rocky Hill, N.J., USA). After fourteen days, the cells were loaded with chloromethyl-fluoroscein-diacetate (CMFDA) (Molecular Probes, Inc.) by incubating the activated PBMCs in 1 ng/mL CMFDA for >1.5 hours at 37° C. in a tissue culture incubator. While cells were loading, the test compounds were diluted in DMSO to a concentration that is 100-times the intended final assay concentration. Next, 100 ng/mL of human ITAC (Peprotech) in human plasma (EDTA, drug free, Biological Specialty Corp) was prepared. Test compounds were added to the human ITAC preparation. Cells were washed once in prewarmed (37° C.) RPMI (Invitrogen) media with 0.5% BSA and resuspended to 5 million cells/ml in human plasma. The test compounds were added to the PBMCs. A 96-well chemotaxis migration plate (NeuroProbe, Inc.) was assembled by adding, per well, 30 uL of ITAC/compound mixture in the lower chamber, placing the […] membrane on top of the ITAC/compound well, and adding 50 uL of the PBMC/compound mixture to the well. The plates were covered and incubated in a humidified tissue culture incubator for 2.5 hours. A standard curve of CMFDA-loaded cells to be used as a reference for the test plates was prepared. Migration plates were disassembled and are read in a fluorometric plate reader set to 475 nm absorbance, 517 nm emission. The fluorometric reading was converted to cell number using the standard curve and calculating the percentage of migrating cells.
# CYP3A4 [4] = assay: Time dependent CYP inhibition assay (midazolam, pooled human liver microsomes); conditions: preincubation with NADPH, midazolam marker substrate
# Experimental: (§3) CYP Inhibition Assay: Time dependent CYP inhibition assays were initiated by incubating a test compound in 0.1 mM phosphate buffer containing pooled human liver microsomes (1 mg/mL protein) in the presence of NADPH for 0, 15 and 30 minutes. At each time point, an aliquot of the preincubation mixture was removed and added to 0.1 mM phosphate buffer containing marker substrate (midazolam) and fresh NADPH. The residual CYP activity, after the preincubation times of 0, 15, and 30 minutes, was monitored for 5 minutes. Data are expressed as the % 1-OH midazolam formation at 15 minutes compared to that formed at 0 minutes. […] DMSO (vehicle control) caused an approximate 10% drop in CYP activity over 15 minutes.
# Rat PK (IV) = conditions: in vivo
# Experimental: (§2) Pharmacokinetics of exemplary compounds of the invention was assessed in rats.
# Rat PK PO = assay type: in vivo; conditions: Sprague-Dawley, plasma; for bioavailability: read-out: Rat PK PO F %
# Experimental: In Vivo Metabolic Evaluation in Rat: To study the metabolic fate of test compounds in vivo, Sprague-Dawley (SD) rats were administered (orally gavage) test compound in suspension. Blood samples (˜0.3 mL/timepoint) were collected at 1, 2, 4, 8, 24, 30 and 48 hours post-dose into EDTA containing tubes. All blood samples were collected via tail artery venipuncture under isofluorane anesthesia. Blood samples were processed for plasma by centrifugation and stored frozen until analysis (−20° to −70° C.). Samples were analyzed using a sensitive and selective LC/MS/MS method. Briefly, samples were prepared for analysis using protein precipitation. An aliquot of the resulting supernatant was subjected to LC/MS/MS analysis. Separation of the analytes from endogenous material was achieved using an reverse phase HPLC. Column effluent was monitored using a Sciex API 365 triple quadrapole mass spectrometer with a Sciex TurboIon Spray probe. Unknown concentrations of testing articles were determined using a calibration curve from 1 to 2000 ng/mL.
# as §2
# CYP3A4 [5] = conditions: microsomes
# Experimental: as §3
Structure (SMILES),IC50 (CXCR3 [1]) [µM],IC50 (CXCR3 [2]) [µM],IC50 [3] [µM],other results
CCS(=O)(=O)CCN(C(=O)Cc1ccc(F)c(C(F)(F)F)c1)[C@H](C)c1nc2ncccc2c(=O)n1-c1ccc(O)cc1,–,–,–,Time Dependent CYP3A4 Inhibition (CYP3A4 [4]): Yes
CCOc1ccc(-c2c([C@@H](C)N(CCS(=O)(=O)CC)C(=O)Cc3ccc(F)c(C(F)(F)F)c3)nc3ccccn3c2=O)cc1,0.001,0.057,0.183,–
CCS(=O)(=O)CCN(C(=O)Cc1ccc(F)c(C(F)(F)F)c1)[C@H](C)c1nc2ccccn2c(=O)c1-c1ccc(O)cc1,0.816,4.08,–,Time Dependent CYP3A4 Inhibition (CYP3A4 [4]): Yes
CCS(=O)(=O)CCN(C(=O)Cc1ccc(F)c(C(F)(F)F)c1)[C@H](C)c1nc2ccccn2c(=O)c1-c1ccc(C#N)cc1,–,–,0.041,–
CCOc1ccc(-c2c([C@@H](C)N(CCS(=O)(=O)CC)C(=O)Cc3ccc(F)c(C(F)(F)F)c3)nc3ncccn23)cc1,0.004,0.07,1.5,–
CCS(=O)(=O)CCN(C(=O)Cc1ccc(F)c(C(F)(F)F)c1)[C@H](C)c1nc2ncccn2c1-c1ccc(O)cc1,10,10,–,Time Dependent CYP3A4 Inhibition (CYP3A4 [4]): Yes
CCS(=O)(=O)CCN(C(=O)Cc1ccc(C(F)(F)F)c(F)c1)[C@H](C)c1nc2ncccn2c(=O)c1-c1ccc(C#N)cc1,–,–,–,Vd (Rat PK (IV); read-out: Rat PK(IV) Vdss): 0.31 L/kg; MRT (Rat PK PO): 3.96 h; bioavailability (Rat PK PO): 24%
CCS(=O)(=O)CCN(C(=O)Cc1ccc(F)c(C(F)(F)F)c1)[C@H](C)c1nc2ncccc2c(=O)n1-c1ccc(C#N)cc1 [drawing 192],–,–,0.12,Time Dependent CYP3A4 Inhibition (CYP3A4 [5]): NO
CCS(=O)(=O)CCN(C(=O)Cc1ccc(F)c(C(F)(F)F)c1)[C@H](C)c1nc2ncccc2c(=O)n1-c1ccc(C#N)cc1 [drawing 199],–,–,–,clearance (Rat PK (IV); read-out: Rat PK(IV) Cl (converted)): 39.7 mL/min/kg; MRT (Rat PK PO): 1.5 h; bioavailability (Rat PK PO): 47.2%

# Further lines, with some results ahead:
IC50 (CXCR3 [1]) [µM],IC50 (CXCR3 [2]) [µM],Structure (SMILES),IC50 [3] [µM],other results
0.001,0.007,CCOc1ccc(-n2c([C@@H](C)N(CCS(=O)(=O)CC)C(=O)Cc3ccc(F)c(C(F)(F)F)c3)nc3ncccc3c2=O)cc1,0.022,–
0.01,0.049,CCS(=O)(=O)CCN(C(=O)Cc1ccc(F)c(C(F)(F)F)c1)[C@H](C)c1nc2ncccn2c1-c1ccc(C#N)cc1,0.083,–
